Assay [1] deals with cPLA enzyme. Kind of assay: Effect of solvent and diluent components on cPLA enzyme activity. Type of assay: biochemical, human. As to the method: The substrate diluent generally comprises any suitable assay buffer system, such as HEPES, Tris-HCL, Tris-maleate, glycine, or the like. […] A suitable diluent comprises about 25% -50% glycerol, and preferably about 30% glycerol.
The thiosubstrate diluent also comprises an amount of detergent sufficient to solubilize! the substrate. One suitable detergent is Triton-X 100. Triton-X 100 is preferably used at concentrations of about 1-5 mM with about 1-3 mM thiosubstrate.
The Ca^2+ can be provided by the addition of CaCl2 to the diluent, preferably at concentrations greater than 1 mM, and more preferably at a concentration of about 10 mM.
The effectiveness of a phospholipase A2 enzyme inhibitor can be measured by adding the inhibitor to the substrate solution prior to the incubation with enzyme. […] Therefore, approximately 10 μl inhibitor dissolved in DMSO can be added to 200 μl substrate solution prior to the addition of enzyme to test the effectiveness of the inhibitor against cPLA. […] Thus, appropriate blanks should be run under each condition tested.

Assay [2] concerns cPLA enzyme. The assay can be described thus: Sensitivity of cPLA enzyme to thiol-sensitive reagents. Conditions: in the presence of DTNB (Ellman's reagent). The assay is classed as biochemical, human. The method, then:
The sPLA enzymes are very stable, containing 7 disulfide bonds. […] In contrast, cPLA is an intracellular enzyme and assays and purifications are often run in the presence of reduced thiols, such as 2-mercaptoethanol or dithiothreitol (Kramer et al., supra; Clark, J. D., et al., supra).
After an incubation period, the enzyme/substrate reaction is quenched by the addition of a quenching reagent and a thiol-sensitive reagent. As used herein, the term "quenching reagent" refers to any compound capable of stopping the enzymatic activity of phospholipase A2 enzyme. Suitable quenching reagents are Ca^2+ chelators such as ethylene glycol bis(oxyethylenenitrilo) tetraacetic acid (EGTA) and the like, or high concentrations of a detergent such as 30 mM Triton X-100. The thiol-sensitive reagent can be any reagent capable of releasing a chromophore such as DTNB or 4,4'-dithiodipyridine (DTP). DTNB is a preferred thiol-sensitive reagent because its chromophore can be detected at […], which is available to most microtiterplate readers.
For orientation: In Ellman's method for cholinesterases, released thiocholine reacts with DTNB.

The subject of assay [3] is cPLA2 (purified, recombinant human). The assay can be described thus: Microtiterplate assay for cPLA2 using thioPC substrate. The assay is classed as biochemical. As to the method: The enzyme activity of CPLA2 was assayed using a ThioPC/Triton X-100 substrate solution. An appropriate volume of ThioPC in chloroform solution was evaporated to dryness under a stream of N2. Triton X-100 (8 mM) in 2× assay buffer (160 mM HEPES, pH 7.4, 300 mM NaCl, 20 mM CaC2, 2 mg/ml BSA) was added to the dried lipid in one-half the desired final volume to give a 2-fold concentrated substrate solution. This solution was bath sonicated 1 min to loosen dried ThioPC from the walls of the vial and then probe sonicated On ice, 20 sec on, 20 sec off for 3 min. The solution was then warmed to 40° C. and warm glycerol equivalent to 30% of the final volume was added. The solution was then brought to the desired final volume with deionized H2 O. The final assay contained 2 mM ThioPC, 4 mM Triton! X-100 and 30% glycerol in 80 mM HEPES, pH 7.4, 150 mM NaCl, 10 mM CaCl2 and 1 mg/ml BSA.
The substrate was then aliquotted, in 200 μl increments, into the wells of a 96-well plate and equilibrated for 5 min at 37° C. To initiate the reaction, 500 ng cPLA2 (purified, recombinant human), in a 5 μl volume of 1× assay buffer, was added to the wells, the plate was shaken 20 seconds on high to mix, and then incubated for 60 min at 37° C. […]
After 60 min, 10 μl of a 25 mM DTNB/475 mM EGTA mixture was added to all substrate containing wells to quench the reaction and initiate the color development. […] After adding the DTNB/EGTA, the plate was once again shaken 20 sec on high and allowed to incubate for an additional 3 min to give the DTNB chromophore time to fully develop prior to reading the plate. The absorbance was measured using a dual wavelength option (405 nm -620 nm) to correct for light scattering. […] The average absorbance of the blanks was subtracted from that of the enzyme containing wells to correct for the absorbance due to the substrate, DTNB, and EGTA. The difference in absorbance was used to calculate enzyme activity. […] Specific activity was calculated using ε405 for DTNB of 12,800 M^- cm^-1 (Yu et al supra) and a path length of 0.47 cm for 215 μl final total volume. […]

Regarding `C[S+](C)[O-]` [DMSO], in the assay with cPLA enzyme [1] (DMSO:enzyme/substrate ratio of about 1:20), the “effect of DMSO on enzyme activity” value is on record as “unaffected”.

As to `O=C(O)c1cc(SSc2ccc([N+](=O)[O-])c(C(=O)O)c2)ccc1[N+](=O)[O-]` [DTNB, 5,5'-dithiobis(2-nitrobenzoic acid)], in the assay with cPLA enzyme [2], the “enzymatic activity of cPLA in the presence of thiol-sensitive reagent” value is on record as “enzymatic activity was lost”.

As to `OCC(O)CO` [glycerol], the “effect of glycerol on enzyme activity” value is given as “enzyme activity is increased” in the assay on cPLA enzyme [1] (about 70% glycerol, diluent too viscous) and “Enzyme activity increases” in the assay on cPLA enzyme [1] (glycerol as component of substrate diluent).

As for `CCCCC/C=C\C/C=C\C/C=C\C/C=C\CCCC(=O)S[C@H](COCCCCCCCCCCCCCCCC)COP(=O)([O-])OCC[N+](C)(C)C` [thioPC, 1-hexadecyl-2-arachidonoylthio-2-deoxy-sn-glycero-3-phosphorylcholine], the “enzyme activity as a function of time: more linear phase” value in assay [3] (2 mM ThioPC, 4 mM Triton X-100, 30% glycerol, pH 7.4, 37° C., FIG. 3) was 5 to 60 min. The “enzyme activity as a function of time: burst phase” value in assay [3] (2 mM ThioPC, 4 mM Triton X-100, 30% glycerol, pH 7.4, 37° C., FIG. 3, short burst of activity) came to 5 min.

For the molecule Triton X-100, the “effect of Triton X-100 on stability of cPLA activity” value in the assay on cPLA enzyme [1] (Triton X-100 at about 1-5 mM with about 1-3 mM thiosubstrate) was “more stable”.

B1: cPLA: 85 kDa arachidonic acid specific enzyme; purified, recombinant human (protein, UniProt P47712 1-749, looked up)
Cytosolic phospholipase A2: MSFIDPYQHIIVEHQYSHKFTVVVLRATKVTKGAFGDMLDTPDPYVELFISTTPDSRKRTRHFNNDINPVWNETFEFILDPNQENVLEITLMDANYVMDETLGTATFTVSSMKVGEKKEVPFIFNQVTEMVLEMSLEVCSCPDLRFSMALCDQEKTFRQQRKEHIRESMKKLLGPKNSEGLHSARDVPVVAILGSGGGFRAMVGFSGVMKALYESGILDCATYVAGLSGSTWYMSTLYSHPDFPEKGPEEINEELMKNVSHNPLLLLTPQKVKRYVESLWKKKSSGQPVTFTDIFGMLIGETLIHNRMNTTLSSLKEKVNTAQCPLPLFTCLHVKPDVSELMFADWVEFSPYEIGMAKYGTFMAPDLFGSKFFMGTVVKKYEENPLHFLMGVWGSAFSILFNRVLGVSGSQSRGSTMEEELENITTKHIVSNDSSDSDDESHEPKGTENEDAGSDYQSDNQASWIHRMIMALVSDSALFNTREGRAGKVHNFMLGLNLNTSYPLSPLSDFATQDSFDDDELDAAVADPDEFERIYEPLDVKSKKIHVVDSGLTFNLPYPLILRPQRGVDLIISFDFSARPSDSSPPFKELLLAEKWAKMNKLPFPKIDPYVFDREGLKECYVFKPKNPDMEKDCPTIIHFVLANINFRKYRAPGVPRETEEEKEIADFDIFDDPESPFSTFNFQYPNQAFKRLHDLMHFNTLNNIDVIKEAMVESIEYRRQNPSRCSVSLSNVEARRFFNKEFLSKPKA
Turning to B1, the “range of enzyme amount with linear activity” value in assay [3] (FIG. 2, thiosubstrate assay, listed as cytosolic phospholipase A2) lay in the range of 0.05 to 1.0 µg.

For the origin of these results see US5464754A, “Assay and substrate for arachidonoyl-specific phospholipase A2” (The Regents of the University of California, priority 1993, dated 1995).
